The target of one experiment is T1, AR-TIF2 PPI (Homo sapiens, UniProt P10275).
T1 construct: AR-LBD residues (662-919) were incorporated into one biosensor; expressed in transfected cells; host or cells: U-2 OS osteosarcoma cells, coinfected with recombinant adenoviruses
T1 sequence (P10275 662-919): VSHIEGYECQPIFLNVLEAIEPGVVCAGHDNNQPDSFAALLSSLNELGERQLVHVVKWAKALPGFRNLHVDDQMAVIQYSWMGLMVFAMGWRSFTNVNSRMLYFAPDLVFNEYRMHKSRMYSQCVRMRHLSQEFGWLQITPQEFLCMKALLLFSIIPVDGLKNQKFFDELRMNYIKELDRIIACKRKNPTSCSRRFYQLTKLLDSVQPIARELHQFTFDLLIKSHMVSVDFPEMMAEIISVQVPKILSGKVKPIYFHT
The experiment is described as follows: AR-TIF2 PPIB HCS assay: disruption of preformed DHT-induced AR-TIF2 PPI complexes (DHT then compound). The note with it: U-2 OS cells. It counts as cell-based. The procedure: AR-TIF2 Protein-Protein Interaction Biosensor Assay: The AR-TIF2 PPIB HCS assay was performed in U-2 OS osteosarcoma cells as described previously (Fancher et al., Assay Drug Dev Technol. 2016, 14:453-477; Fancher et al., Assay Drug Dev Technol. 2018, 16:297-319; Hua et al., Assay Drug Dev Technol. 2014, 12:395-418; Hua et al., Methods Mol Biol. 2018, 1683:211-227). Briefly, U-2 OS cells were coinfected with recombinant adenovirus biosensor expression constructs and seeded at 2,500 cells per well in 384-well collagen-coated microplates (Greiner Bio-One #781956) and plates were incubated overnight at 37° C. in 5% CO2 and 95% humidity. […] After the appropriate time, assay plates were fixed by transfer of 50 μL of pre-warmed (37° C.) 7.4% formaldehyde and 2 μg/mL Hoechst 33342 in PBS and incubation at room temperature for 30 minutes. Liquid was aspirated, plates were washed twice with 85 μL PBS, leaving the final wash in the plate. Plates were sealed with adhesive aluminum plate seals, and fluorescent images of three fields of view were acquired in the DAPI (Hoechst stained nuclei), FITC (TIF2-GFP) and Texas Red (AR-RFP) channels on an ImageXpress® Micro (IXM) automated HCS platform (Molecular Devices LLC, Sunnyvale, CA) using a 10× Plan Fluor 0.3 NA objective. Images were analyzed using the Translocation Enhanced (TE) image analysis module of the MetaXpress® software (Molecular Devices, LLC, San Jose, CA) as described previously (Fancher et al., Assay Drug Dev Technol. 2016, 14:453-477; Fancher et al., Assay Drug Dev Technol. 2018, 16:297-319; Hua et al., Assay Drug Dev Technol. 2014, 12:395-418; Hua et al., Methods Mol Biol. 2018, 1683:211-227).
For the 96-well AR-LBD H^3-DHT radioligand binding assay, eight minimum and maximum plate control wells were utilized to normalize the data. For the PC cell line growth inhibition assays the DMSO control data from the TO and T72 assay plates was used to assess the dynamic range of the T0 to T72 cell growth, and to calculate S:B ratios and Z′-factor coefficient statistics for the assay signal window (T0 to T72). To normalize the 72 h compound exposure PC growth inhibition data, the signals from the compound treated wells were processed and expressed as % of the T72 DMSO plate controls. IC50 and GI50 values for each of the bioassays were calculated using GraphPad Prism 9 software to plot and fit data to curves using the Sigmoidal dose response variable slope equation Y=Bottom+[Top-Bottom]/[1+10^(Log EC50−X)*HillSlope].
A positional AR-TFI2 protein-protein interaction biosensor (PPIB) assay was used to identify small molecules that inhibited DHT-induced formation of AR-TIF2 PPIs and/or disrupted pre-existing AR-TIF2 PPIs (Fancher et al., Assay Drug Dev Technol 2016, 14(8):453-477; Fancher et al., Assay Drug Dev Technol 2018, 16(6):297-319; Hua et al., Assay Drug Dev Technol 2014, 12:395-418; Hua et al., Methods Mol biol 2018, 1683:211-227). AR-LBD residues (662-919) were incorporated into one biosensor and TIF2 residues (725-840) containing the 3rd NR box LXXLL motif into the second interacting biosensor partner (Id.) The AR-TIF2 PPIB recapitulates the orthosteric ligand (OSL)-induced translocation of AR from the cytoplasm into the nucleus where PPIs with TIF2 result in colocalization of both biosensors in the nucleolus. Using three libraries, a total of 143,535 compounds were screened—a 10,000-compound ChemDiv PPI focused diversity library, a 50,000-compound ChemBridge diversity library, and a 83,535-compound library provided by the NCI's Chemical Biology Consortium. The 10K and 50K diversity libraries were subsets of 142K and 810K parent libraries, enabling screening of a representative subset of >1×10^6 compounds. AR-TIF2 PPI inhibitor and disruptor actives were confirmed in the HCS assay and counter screens designed to identify and exclude nuisance/interference or non-selective compounds (Fancher et al., Assay Drug Dev Technol 2018, 16(6):297-319). […]

A short description of experiment [1]: GI50 given in Tables 4-6 (test not described). The class given is cell-based. The conditions noted are these: cell line not stated.
The mark [2] stands for this setting: DHT then compound, read-out: D then C IC50.
The mark [3] stands for this setting: 25 nM DHT, read-out: Disruption of DHT-induced AR-TIF2 PPIs IC50.

A word on the IC50: it is the concentration that inhibits the measured activity by half. By GI50 is commonly meant the concentration that inhibits growth by half. Read a low GI50 as more potent growth inhibition.

Like-named read-outs stand apart in the source and are kept apart here.

`Cc1c(-c2ccccc2F)[nH]c2ccc(CNC(=O)c3ccc(CO)o3)cc12` [Compound S3-14]: the half-inhibitory concentration (IC50) at AR-TIF2 PPI (setting [2]) was 16 µM. The compound also showed a GI50 in experiment [1] above 100 µM.
For `Cc1cccc2c(-c3ccc(O)c(F)c3)c[nH]c12` [Compound S3-17] the same measures were 8.8 µM and 99 µM.
As to `COc1cc(-c2ccc(C)s2)cc2c1OCCN(c1nc(C(N)=O)cs1)C2` [Compound S1-5], the IC50 on AR-TIF2 PPI (setting [2]) and at AR-TIF2 PPI (setting [3]) was above 100 µM in each case. In experiment [1], this compound returned a GI50 above 100 µM.
For `Cc1nc(N)cc(N2CCOc3c(O)cc(-c4ccccc4C)cc3C2)n1` [Compound S1-2], on AR-TIF2 PPI (setting [2]), the IC50 turned out to be 63 µM. The GI50 in experiment [1] came out at 51.9 µM.
As to `Cc1nsc(NC(=O)N2CCC(Sc3ccccc3C)CC2)n1` [Compound S2-6], the results for the IC50 on AR-TIF2 PPI (setting [2]) and at AR-TIF2 PPI (setting [3]) were 5.8 µM and 5.64 µM, respectively. The GI50 in experiment [1] was above 100 µM.
On the same counts, the results for `Cc1ccccc1-c1cc(O)c2c(c1)CN(c1cc(N)ncn1)CCO2` [Compound S1-4] are above 100 µM, above 100 µM and above 100 µM.
For `Cc1nsc(NC(=O)N2CCC(Cn3ccnc3)CC2)n1` [Compound S2-7] the same measures were above 100 µM, above 100 µM and above 100 µM.
Consider `Cc1ccccc1-c1cc(O)c2c(c1)CN(c1nccs1)CCO2` [Compound S1-3], for which the IC50 on AR-TIF2 PPI (setting [2]) worked out at 41.8 µM. The compound also came in with a GI50 in experiment [1] above 100 µM.
As to `Cc1ccccc1-c1cc(O)c2c(c1)CN(c1nc(C(N)=O)cs1)CCO2` [Compound S1-1], the IC50 on AR-TIF2 PPI (setting [3]) amounted to 24.8 µM. In addition, the 50% growth inhibitory concentration (GI50) in experiment [1] was above 100 µM.
In the case of `Cc1c(-c2ccc(F)cc2)[nH]c2ccc(CNC(=O)c3ccc(CO)o3)cc12` [Compound S3-15], the IC50 on AR-TIF2 PPI (setting [2]) was found to be 30.6 µM. The same compound showed a GI50 in experiment [1] above 100 µM.
In the case of `CNC(=O)c1ccc(-c2c[nH]c3c(C)cccc23)cc1` [Compound S3-21], the IC50 at AR-TIF2 PPI (setting [2]) and at AR-TIF2 PPI (setting [3]) was above 100 µM throughout. The compound also gave a GI50 in experiment [1] above 100 µM.
Turning to `CC(=O)NCCC(=O)NCc1ccc2[nH]c(-c3ccccc3F)c(C)c2c1` [Compound S3-13], the IC50 at AR-TIF2 PPI (setting [2]) worked out at 37.6 µM. Besides, the concentration for 50% growth inhibition (GI50) in experiment [1] was above 100 µM.
In the case of `Cc1c(-c2ccccc2F)[nH]c2ccc(CNC(=O)CCc3cn[nH]c3)cc12` [Compound S3-11], the IC50 at AR-TIF2 PPI (setting [3]) is 26.1 µM. In addition, the GI50 in experiment [1] is above 100 µM.
Consider `Cc1c(-c2ccccc2F)[nH]c2ccc(CNC(=O)CCc3cnccn3)cc12` [Compound S3-12], for which, at AR-TIF2 PPI (setting [2]), the IC50 was 24.7 µM. This compound also yielded a GI50 in experiment [1] above 100 µM.
